In one test the test system is Colo357-FG. Put plainly: MTS cytotoxicity assay, 72 hours drug exposure, Colo357-FG pancreatic cancer cells. Format: cell-based. Conditions: Homo sapiens, COLO 357/FG, final DMSO 0.5%. On the procedure: (§1) In the first set of assays, IC50 values were determined for each compound after 72 hours of drug exposure in each of the tumor cell lines. Cell lines tested include D54, U87, Panc-1, AsPc-1, Colo357-FG, L3.6, H226, H352, H441 cell lines.
COLO 357 FG is continuous human cell line, COLO 357, with exceptional characteristics was derived from a metastasis of a pancreatic adenocarcinoma. COLO 357 grew as an adhering monolayer with a cell doubling time of 21 h and grew with 10% clonal efficiency in soft agar. COLO 357 cells had numerous lamellar inclusions. The cells elaborated the pancreatic enzymes trypsin, elastase and chymotrypsin. COLO 357 also secreted appreciable amounts of carcinoembryonic antigen and human chorionic gonadotropin. […] Nine nucleolar organizing regions were found by silver-stained metaphase preparations. COLO 357 has been “fingerprinted” for seven allelic isozymes.
(§2) All cell lines were maintained in respective growth media at 37° C., 5% CO2 and 98% humidity. Cells were treated with the compounds and all drug concentrations were diluted so that the final concentration of DMSO is 0.5%. The cytotoxic effect was measured by the MTS Assay (Tetrazolium), which is a colorimetric method for determining the number of viable cells. After the 72 hours of incubation with drug, Promega's MTS reagent were added to the cells according to manufacturer's instructions and incubated for 2 hours. The plates were read at 490 nm and the resulting data graphed with GraphPad Prism 5 software.
(§3) IC50 was calculated, which is approximate equivalent of IG50 (concentration at which 50% growth inhibition is measured). The IC50 values represent […] of the drug concentration.
In general terms: Tetrazolium assays rely on reduction of a dye to a coloured formazan, in cell work by metabolically active cells.

The subject of a further test is U87. Put plainly: MTS cytotoxicity assay, 72 hours drug exposure, U87 brain tumor cells. Conditions: Homo sapiens, U-87 MG, final DMSO 0.5%. Format: cell-based. On the procedure: as §1
U87 is a human primary glioblastoma cell line formally known as U-87 MG. It has epithelial morphology, and was obtained from a patient with stage four cancer. U-87 MG can be obtained from the American Type Culture Collection (ATCC) where it is known by the accession number HTB-14. The entire sequence of the genome of U-87 MG has recently been published in PLoS Genetics, 2010 January; 6(1): e1000832. This is a hypodiploid human cell line with the modal chromosome number of 44 occurring in 48% of cells. The rate of higher ploidy was 5.9%. Twelve markers were common to all cells, including der(1)t(1;3) (p22;q21), der(16)t(1;16) (p22;p12), del(9) (p13) and nine others. The marker der(1) had two copies in most cells. There was only one copy of normal X. N1, N6 and N9 were not found.
as §2, §3

pIC50: −log10 of the molar value.

For `CCCC(=O)OCC1OC(O)CC(OC(=O)CCC)C1O` (centres unmarked) [WP1213], the negative logarithm of the IC50 (pIC50) was 3.42 in the test on Colo357-FG and 3.62 in the test with U87.

Consider `CCCC(=O)OC[C@H]1OC(O)C[C@@H](O)[C@@H]1OC(=O)CCC` (stereo partly drawn) [WP1214, 4,6-Di-O-Butyryl-2-Deoxy-D-Glucopyranose], for which the pIC50 with Colo357-FG was 3.36; with U87 it was 3.52.

In the case of `CCC(=O)OC1CC(O)C(O)C(CO)O1` (centres unmarked) [WP1216], in the test with U87, the negative logarithm of the IC50 (pIC50) was 2.45.

In the test on U87, `CCCC(=O)OC[C@H]1OC(OC(=O)CCC)C[C@@H](O)[C@@H]1O` (stereo partly drawn) [WP1217, 1,6-Di-O-Butyryl-2-Deoxy-D-Glucopyranose] gave a pIC50 of 2.63.

Consider `CCC(=O)OCC1OC(O)CC(OC(=O)CC)C1O` (centres unmarked) [WP1231], for which the pIC50 with Colo357-FG was 3.26; in the test on U87, 3.42.

As to `CCCCC(=O)OCC1OC(O)CC(OC(=O)CCCC)C1O` (centres unmarked) [WP1232], the negative logarithm of the IC50 (pIC50) is 3.31 in the test on Colo357-FG and 3.60 in the test with U87.

For `CCCCC(=O)OC[C@H]1OC(O)C[C@@H](O)[C@@H]1OC(=O)CCCC` (stereo partly drawn) [WP1233, 4,6-Di-O-Valeroyl-2-Deoxy-D-Glucopyranose], the figures for the negative-log IC50 (pIC50) in the test on Colo357-FG and in the test on U87 were 3.64 and 3.70, respectively.

Consider `CCC(CC)C(=O)OCC1OC(O)CC(OC(=O)C(CC)CC)C1O` (centres unmarked) [WP1234], for which the negative-log IC50 (pIC50) with Colo357-FG was 4.00; in the test with U87, 4.26.

Turning to `CCC(CC)C(=O)OCC1OC(O)CC(O)C1OC(=O)C(CC)CC` [WP1241, 4,6-Di-O-(2-Ethyl)Butyryl-2-Deoxy-α-D-Glucopyranose], the pIC50 was 3.55 in the test on Colo357-FG and 3.91 with U87.

With `CCC(=O)OCC1OC(O)CC(O)C1OC(=O)CC` (centres unmarked) [WP1242], the results for the pIC50 in the test on Colo357-FG and in the test on U87 were 2.20 and 3.31, respectively.

On to `CCC(CC)C(=O)OC1CC(OC(=O)C(CC)CC)C(O)C(CO)O1` [WP1261, 1,3-Di-O-(2-Ethyl)Butyryl-2-Deoxy-β-D-Glucopyranose], for which the values for the pIC50 with Colo357-FG and with U87 were 3.47 and 3.13, respectively.

With `CC(C)CC(=O)OCC1OC(O)CC(OC(=O)CC(C)C)C1O` (centres unmarked) [WP1263], the results for the negative logarithm of the IC50 (pIC50) in the test on Colo357-FG and in the test with U87 were 3.80 and 4.43, respectively.

For the molecule `CCC(CC)C(=O)OCC1OCCC(OC(=O)C(CC)CC)C1O` (centres unmarked) [WP1317], the pIC50 with Colo357-FG and with U87 was 2.68 throughout.

Turning to `CCC(CC)C(=O)OCC1OC(O)CC(O)C1O` [WP1319, 6-O-(2-Ethyl)Butyric-2-Deoxy-D-Glucopyranose], the negative-log IC50 (pIC50) was 2.77 with Colo357-FG and 2.52 in the test with U87.

On to `CCC(CC)C(=O)OC1CC(O)OC(CO)C1O` [WP1342, 3-O-(2-Ethyl)Butyryl-2-Deoxy-D-Glucopyranose], for which the pIC50 in the test on Colo357-FG was 1.88; with U87 it was 2.62.

In the case of `O=C(OCC1OC(O)CC(OC(=O)C2CCCC2)C1O)C1CCCC1` (centres unmarked) [WP1343], the negative-log IC50 (pIC50) was 3.12 in the test on Colo357-FG and 3.96 in the test on U87.

For `CCC(CC)C(=O)OCC1OCC(O)C(OC(=O)C(CC)CC)C1O` (centres unmarked) [WP1357], the pIC50 in the test with Colo357-FG was 3.27.

As for `CCC(CC)C(=O)OC1CC(O)C(O)C(CO)O1` [WP1474, 1-O-(2-Ethyl)Butyryl-2-Deoxy-β-D-Glucopyranose], in the test on U87, the pIC50 was 2.62.

`CCCC(CCC)C(=O)O[C@H]1C[C@@H](O)[C@H](O)[C@@H](CO)O1` [WP1490, 1-O-Valproyl-2-Deoxy-β-D-Glucopyranose]: the negative logarithm of the IC50 (pIC50) was 2.70 in the test with Colo357-FG and 2.62 in the test with U87.

Turning to `CCCC(CCC)C(=O)OC[C@H]1OC(O)C[C@@H](O)[C@@H]1O` (stereo partly drawn) [WP1491, 6-O-Valproyl-2-Deoxy-D-Glucopyranose], the pIC50 in the test on U87 was 2.68.

On to `CCCC(CCC)C(=O)O[C@@H]1CC(O)O[C@H](CO)[C@H]1O` (stereo partly drawn) [WP1512, 3-O-Valproyl-2-Deoxy-D-Glucopyranose], for which the negative logarithm of the IC50 (pIC50) in the test with U87 was 3.13.

In the case of `CCCC(CCC)C(=O)O[C@H]1[C@H](O)CC(O)O[C@@H]1CO` (stereo partly drawn) [WP1513, 4-O-Valproyl-2-Deoxy-D-Glucopyranose], the pIC50 with Colo357-FG and with U87 was 2.92 throughout.

A word on the pIC50: it is the IC50 on a negative log10 scale, so that one unit is a factor of ten. Read a low pIC50 as a high IC50.

The values above are taken from US11925654B2, “Esters of 2-deoxy-monosaccharides with anti proliferative activity” (Board of Regents, The University of Texas System, priority 2013, dated 2024).
